According to paper PMC12557367, ““Precision on Two Wheels”–Structural Refinement of ^64Cu- and ^68Ga-Labeled Bicyclic Peptides Targeting Nectin‑4 for Improved Tumor Imaging: From Preclinical Development to First-in-Human Application” (Journal of Medicinal Chemistry, 2025):
Numbered stars: 1 amine (or outer) side, 2 acyl side, 3 side chain; on linkers, the order of the positions; unused ones are H or OH. Bridge positions count the residues as written; N and C are the ends. Square brackets hold non-standard residues; d marks the D form. Peptide text beside a SMILES is read from it. * marks the point of attachment. TATA = O=C(CC[*:1])N1CN(C(=O)CC[*:2])CN(C(=O)CC[*:3])C1; X1 = O=C(O)CN1CCN(CC(=O)O)CCN([C@H](CCC(=O)*)C(=O)O)CC1; 1Nal = N[C@@H](Cc1cccc2ccccc12)C(=O)O; 2Nal = N[C@@H](Cc1ccc2ccccc2c1)C(=O)O; Hyp = O=C(O)[C@@H]1C[C@@H](O)CN1; hArg = N=C(N)NCCCC[C@H](N)C(=O)O; SeMet = C[Se]CC[C@H](N)C(=O)O; hSer = N[C@@H](CCO)C(=O)O

How the values were obtained:
[1] = n-Octanol/PBS distribution coefficient (logD 7.4); type: physicochemical
Description: The determination of logD 7.4 was performed in triplicate. A sample of the ^64Cu/^68Ga-labeled compound containing ≈1 MBq in a volume of 1 μL was added to a 1.5 mL Eppendorf tube containing 400 μL of PBS (pH 7.4) and 400 μL of n-Octanol (the phases were presaturated with each other). The tube was vortexed vigorously for 1 min and then centrifuged at 16,100g for 4 min to separate the phases. For sampling from the aqueous phase, the pipette tip was discharged while passing through the octanol layer. Then, the sample was taken within the aqueous phase. Any residual liquid was carefully removed by moving the tip along the inner wall of an Eppendorf tube. The radioactivity in a defined volume of each layer was measured (ISOMED 2100). The distribution coefficient was expressed as the logarithm of the ratio of counts per minute (cpm) measured in the n-Octanol phase to the cpm measured in the PBS phase.

[2] = Chromatographic hydrophobicity index at immobilized artificial membrane (CHI IAM7.4) by HPLC; type: physicochemical; conditions: nonlabeled peptide, pH 7.4
Description: Consequently, the CHI IAM7.4 values indicate that unfavorable pharmacokinetic behavior due to nonspecific binding is not to be expected.
All commercial reagents and solvents were used without further purification, unless otherwise specified. […] The purity of compound 5, which bears selenomethionine, was lower due to the lability to oxidation (as discussed above). The HPLC-based determination of chromatographic hydrophobicity indices at an immobilized artificial membrane was performed as previously described according to the method developed by Valko et al.

[3] = test system: HT-1376 cells; assay: Saturation binding assay on intact cells; type: cell-based, human; conditions: ^64Cu-labeled ligand, intact HT-1376 cells, 60 min, PBS wash; apparent; ±SD
Description: For the saturation binding assay, total and nonspecific binding were determined as described above using 10 different radioligand concentrations ([…]) prepared by serial 1:1 dilution. Plots of “total binding” = f(radioligand) were analyzed by nonlinear regressions using the model of “one site-total, accounting for ligand depletion” as implemented in GraphPad Prism, and Plots of “nonspecific binding” = f(radioligand) were analyzed by linear regressions.

[4] = target: T1, immobilized human nectin-4 (Homo sapiens, UniProt Q96NY8); assay: SPR analysis of binding kinetics; conditions: ±SEM; for kon: HBS-P+ pH 7.4, 25 °C, read-out: k on (SPR, *10^6 M^–1 s^–1); for koff: pH 7.4, HBS-P+ pH 7.4, 25 °C, read-out: k off (SPR, *10^–3 s^–1)
T1 construct: close to the value determined for the complete extracellular domain of nectin-4 (0.94 nM); purchased R&D Systems 2659-N4
T1 sequence (Q96NY8 32-349 limits assumed): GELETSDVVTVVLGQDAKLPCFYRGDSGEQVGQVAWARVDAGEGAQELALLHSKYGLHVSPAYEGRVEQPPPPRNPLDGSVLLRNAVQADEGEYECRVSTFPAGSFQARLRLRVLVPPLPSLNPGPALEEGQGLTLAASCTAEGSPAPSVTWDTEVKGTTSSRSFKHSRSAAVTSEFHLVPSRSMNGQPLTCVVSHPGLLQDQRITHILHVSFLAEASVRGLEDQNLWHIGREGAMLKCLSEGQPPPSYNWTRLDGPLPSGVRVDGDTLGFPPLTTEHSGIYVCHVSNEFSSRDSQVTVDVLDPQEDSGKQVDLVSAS
Description: For this purpose, recombinant human nectin-4 was covalently immobilized on a CM5 sensor chip by EDC/NHS coupling. For analyses, the buffer composition (HBS-P+, pH 7.4) was similar to that of the FA assay; however, DMSO was completely omitted (1% DMSO for the FA assay).
The SPR analyses were carried out on a Biacore T200 (GE Healthcare, Chicago, IL, USA) at 25 °C using CM5 sensor chips (Cytiva) and HBS-P+ as running buffer (Cytiva) at a flow of 30 μL/min unless otherwise specified and a data collection rate of 10 Hz. All flow cells (FC) were normalized, and functionalization was performed using an amine coupling Kit (Cytiva). […] Binding analyses were performed by a single-cycle kinetic on both FC. Two start-up cycles were performed at the beginning of each experimental set, comprising the injection of bicyclic peptide (50 nM) and analysis on both FC, followed by regeneration. Binding analysis for the bicyclic peptides was performed by consecutive injection of five increasing concentrations (120 s contact time for each concentration), followed by 600 s dissociation time and analysis on both FC. The regeneration was performed by sequential injection of 10 mM NaOAc (pH 5.5) for 60 s, washing the needle using HBS-P+, injection of 10 mM NaOAc (pH 5.5) for 60 s, 600 s waiting, four injections of HBS-P+ (60 s), and a final 600 s waiting for stabilization. Blank runs using only buffer (HBS-P+) instead of the sample were carried out to obtain double-referenced chromatograms. Binding analyses were performed unless otherwise stated in a concentration range between 0.16–100 nM and 1.6–1000 nM (5-fold dilution series) and analyzed in triplicate. The data were analyzed using the Biacore Evaluation software 3.2.1. […] Data were fitted to a 1:1 binding model.

[5] = target: T2, recombinant human nectin-4 (Homo sapiens, UniProt Q96NY8); assay: FA-based competitive binding assay with probe 1a; conditions: for Hill coefficient n: competitive binding curve, variable slope
T2 construct: close to the value determined for the complete extracellular domain of nectin-4 (0.94 nM); purchased R&D Systems 2659-N4
T2 sequence (Q96NY8 32-349 limits assumed): T1 sequence (Q96NY8 32-349 limits assumed)

[6] = test system: HT-1376-derived tumor xenograft model; assay: Small animal PET/CT imaging; set-up: species or system mice; conditions: mouse, in vivo
Procedure, shortened: (§1)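 NMRI nude mice bore subcutaneous HT-1376 xenografts (5 × 10^6 cells in 50% Matrigel), imaged at ~200 mm^3 tumour volume. Radioligand (molar activity 25 MBq/nmol; ~9 MBq, ≈0.46 nmol) injected i.v. via tail vein, with 75 nmol blocking substance co-injected for blocking; dynamic 2 h PET from injection plus CT for attenuation correction.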

[7] = target: human serum albumin (HSA) (Homo sapiens, UniProt P02768); type: in vitro ADME
Sequence of human serum albumin (HSA) (P02768 25-609): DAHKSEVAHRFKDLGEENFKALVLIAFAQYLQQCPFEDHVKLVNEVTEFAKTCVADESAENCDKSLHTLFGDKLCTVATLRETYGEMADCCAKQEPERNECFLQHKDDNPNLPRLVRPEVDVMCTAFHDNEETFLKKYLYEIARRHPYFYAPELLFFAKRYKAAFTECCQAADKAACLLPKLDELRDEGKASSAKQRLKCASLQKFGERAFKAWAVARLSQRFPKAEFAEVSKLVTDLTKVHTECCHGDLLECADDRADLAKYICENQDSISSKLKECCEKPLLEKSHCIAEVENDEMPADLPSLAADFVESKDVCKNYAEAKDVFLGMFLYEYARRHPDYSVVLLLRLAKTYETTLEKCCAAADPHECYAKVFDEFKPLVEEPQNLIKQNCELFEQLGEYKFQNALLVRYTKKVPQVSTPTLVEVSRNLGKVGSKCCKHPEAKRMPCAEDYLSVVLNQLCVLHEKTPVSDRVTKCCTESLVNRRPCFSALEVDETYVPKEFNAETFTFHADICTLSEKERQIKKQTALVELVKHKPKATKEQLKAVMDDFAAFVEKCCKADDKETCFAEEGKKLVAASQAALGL
Description: page 20: S20 Figure S11: Assessment of plasma protein and HSA binding for [64Cu]Cu-1e and [64Cu]Cu-4 by ultrafiltration […] PBS), and undiluted human plasma. B) Plot of “percentage of retained activity in filter” = f([HSA]) for [64Cu]Cu-4 with nonlinear regression according to the Morrison equation ( total […] labeling). For details on the experimental method and regression analysis see ref. 1. PBS HSA Plasma 0% 20% 40% 60% 80% 47 64 50 percentage of retained activity in filter 102 103 104 105 106 107 0 20 40 60 80 100 [HSA] (nM) percentage of retained activity in filter […] A B (1 picture or pasted object on this page, not shown here)

[8] = Oxidation stability in H2O2 (radio-HPLC)
Description: To avoid a too rapid degradation of radiolabeled peptides, a low H2O2 concentration of 0.0012% was chosen. […] In this context, there are three further thioether functionalities in each peptide due to the cyclization of the Cys residues with TATA. In Figure , the curves for the time-dependent degradation of the intact radioligands are depicted, from which the respective half-lives were calculated.
The stability toward oxidizing conditions was assessed with H2O2. For this purpose, the radioligands (2 nmol, 48 μL of labeling mixture) were treated with H2O2 (2 μL of 0.03%, final concentration of 0.0012%) at ambient temperature. At distinct time points (3, 5, and 7 h), an aliquot of 2 μL was withdrawn and diluted with 48 μL of a mixture named “Supersol,” which consists of 20% ethanol, 0.5% Triton X-100, 5 mM EDTA, 0.5 mM o-phenanthroline, and 0.1% saponin. […] The resulting solutions were analyzed by radio-HPLC (same system as that used for analyzing the ^64Cu-labelings).

[9] = Small animal PET/CT imaging; set-up: species or system mice; conditions: mouse, in vivo, TAC for heart, two-phase decay
Procedure, shortened: as §1

| Structure (SMILES) | CHI IAM7.4 [2] | kon [4] [M⁻¹ s⁻¹] | koff [4] [s⁻¹] | Hill coefficient n [5] | time of highest tumor uptake [6] | binding to HSA or other plasma proteins [7] | further results |
| --- | --- | --- | --- | --- | --- | --- | --- |
| CSCC[C@@H]1NC(=O)[C@@H]2CSCCC(=O)N3CN(CN(C3)C(=O)CCSC[C@H](NC(=O)CC[C@H](C(=O)O)N3CCN(CC(=O)O)CCN(CC(=O)O)CC3)C(=O)N3CCC[C@H]3C(=O)N[C@@H](Cc3ccc4ccccc4c3)C(=O)N[C@H](CC(=O)O)C(=O)N2)C(=O)CCSC[C@@H](C(N)=O)NC(=O)[C@H](Cc2c[nH]c3ccccc23)NC(=O)[C@@H]2C[C@@H](O)CN2C(=O)[C@@H]2CCCN2C(=O)[C@H]([C@@H](C)O)NC(=O)[C@H](CO)NC(=O)[C@H](Cc2c[nH]c3ccccc23)NC(=O)[C@H](CC(=O)O)NC(=O)[C@H](CCCNC(=N)N)NC1=O [8a] (X1-CP[2Nal][dD]CMRDWSTP[Hyp]WC-NH2; linker 1-5-15 via TATA) | 20.3 | 680000 | 0.0433 | 0.99 |  |  | logD ([1]; pH 7.4, logD 7.4): -2.48; Kd [3]: 0.0517 µM; fold lower binding affinity compared to 1e ([5]; FA K d ratio): 30 fold |
| CSCC[C@@H]1NC(=O)[C@@H]2CSCCC(=O)N3CN(CN(C3)C(=O)CCSC[C@H](NC(=O)CC[C@H](C(=O)O)N3CCN(CC(=O)O)CCN(CC(=O)O)CC3)C(=O)N3CCC[C@H]3C(=O)N[C@@H](Cc3cccc4ccccc34)C(=O)N[C@H](CC(=O)O)C(=O)N2)C(=O)CCSC[C@@H](C(N)=O)NC(=O)[C@H](Cc2c[nH]c3ccccc23)NC(=O)[C@@H]2C[C@@H](O)CN2C(=O)[C@@H]2CCCN2C(=O)[C@H]([C@@H](C)O)NC(=O)[C@H](CO)NC(=O)[C@H](Cc2c[nH]c3ccccc23)NC(=O)[C@H](CC(=O)O)NC(=O)[C@H](CCCCNC(=N)N)NC1=O [[^64Cu]Cu-1e] [metal not drawn] |  |  |  |  | ≈ 6 min | negligible binding capability | Percent fast [%] [6]: 86.95 ±2.10% |
| COCC[C@@H]1NC(=O)[C@@H]2CSCCC(=O)N3CN(CN(C3)C(=O)CCSC[C@H](NC(=O)CC[C@H](C(=O)O)N3CCN(CC(=O)O)CCN(CC(=O)O)CC3)C(=O)N3CCC[C@H]3C(=O)N[C@@H](Cc3cccc4ccccc34)C(=O)N[C@H](CC(=O)O)C(=O)N2)C(=O)CCSC[C@@H](C(N)=O)NC(=O)[C@H](Cc2c[nH]c3ccccc23)NC(=O)[C@@H]2C[C@@H](O)CN2C(=O)[C@@H]2CCCN2C(=O)[C@H]([C@@H](C)O)NC(=O)[C@H](CO)NC(=O)[C@H](Cc2c[nH]c3ccccc23)NC(=O)[C@H](CC(=O)O)NC(=O)[C@H](CCCCNC(=N)N)NC1=O [[^64Cu]Cu-4, metal not drawn] (X1-CP[1Nal][dD]C[hSer](Me)[hArg]DWSTP[Hyp]WC-NH2; linker 1-5-15 via TATA) |  |  |  |  |  |  | half-life [8]: 412 min; half-life ([9]; distribution phase, read-out: Blood half life fast): 1.3 ± 0.17 min; half-life ([9]; elimination phase, read-out: Blood half life slow): 32 ± 2.09 min; Kd ([7]; human): > 600 µM |
| COCC[C@@H]1NC(=O)[C@@H]2CSCCC(=O)N3CN(CN(C3)C(=O)CCSC[C@H](NC(=O)CC[C@H](C(=O)O)N3CCN(CC(=O)O)CCN(CC(=O)O)CC3)C(=O)N3CCC[C@H]3C(=O)N[C@@H](Cc3cccc4ccccc34)C(=O)N[C@H](CC(=O)O)C(=O)N2)C(=O)CCSC[C@@H](C(N)=O)NC(=O)[C@H](Cc2c[nH]c3ccccc23)NC(=O)[C@@H]2C[C@@H](O)CN2C(=O)[C@@H]2CCCN2C(=O)[C@H]([C@@H](C)O)NC(=O)[C@H](CO)NC(=O)[C@H](Cc2c[nH]c3ccccc23)NC(=O)[C@H](CC(=O)O)NC(=O)[C@H](CCCCNC(=N)N)NC1=O [[^64Cu]Cu-4] [metal not drawn] (X1-CP[1Nal][dD]C[hSer](Me)[hArg]DWSTP[Hyp]WC-NH2; linker 1-5-15 via TATA) |  |  |  |  | 12.5 min | negligible binding capability | logD 7.4 ([1]; pH 7.4): −2.76; body retention at 2 h p.i. [6]: 40–42% |
| C[Se]CC[C@@H]1NC(=O)[C@@H]2CSCCC(=O)N3CN(CN(C3)C(=O)CCSC[C@H](NC(=O)CC[C@H](C(=O)O)N3CCN(CC(=O)O)CCN(CC(=O)O)CC3)C(=O)N3CCC[C@H]3C(=O)N[C@@H](Cc3cccc4ccccc34)C(=O)N[C@H](CC(=O)O)C(=O)N2)C(=O)CCSC[C@@H](C(N)=O)NC(=O)[C@H](Cc2c[nH]c3ccccc23)NC(=O)[C@@H]2C[C@@H](O)CN2C(=O)[C@@H]2CCCN2C(=O)[C@H]([C@@H](C)O)NC(=O)[C@H](CO)NC(=O)[C@H](Cc2c[nH]c3ccccc23)NC(=O)[C@H](CC(=O)O)NC(=O)[C@H](CCCCNC(=N)N)NC1=O [compound 5] (X1-CP[1Nal][dD]C[SeMet][hArg]DWSTP[Hyp]WC-NH2; linker 1-5-15 via TATA) | 19.5 |  |  | 1.69 |  |  | logD 7.4 ([1]; ^64Cu-labeled ligand, n-octanol/PBS pH 7.4, ±SD): –2.37 (±0.07) |
| CSCC[C@@H]1NC(=O)[C@@H]2CSCCC(=O)N3CN(CN(C3)C(=O)CCSC[C@H](NC(=O)CC[C@H](C(=O)O)N3CCN(CC(=O)O)CCN(CC(=O)O)CC3)C(=O)N3CCC[C@H]3C(=O)N[C@@H](Cc3cccc4ccccc34)C(=O)N[C@H](CC(=O)O)C(=O)N2)C(=O)CCSC[C@@H](C(N)=O)NC(=O)[C@H](Cc2c[nH]c3ccccc23)NC(=O)[C@@H]2C[C@@H](O)CN2C(=O)[C@@H]2CCCN2C(=O)[C@H]([C@@H](C)O)NC(=O)[C@H](CO)NC(=O)[C@H](Cc2c[nH]c3ccccc23)NC(=O)[C@H](CC(=O)O)NC(=O)[C@H](CCCNC(=N)N)NC1=O [compound 10] (X1-CP[1Nal][dD]CMRDWSTP[Hyp]WC-NH2; linker 1-5-15 via TATA) | 19.9 | 1.11e+06 | 0.00278 | 2.05 |  |  |  |
